Assay type in all cases: cell-based
The target of test [1] is T1, hERG channels (Homo sapiens, UniProt Q12809).
T1 construct: cryopreserved at Evotec (Germany) ATCC PTA-6812; host or cells: CHO (Chinese hamster) crelox hERG cell line
The test can be described thus: hERG screening assay (automated patch clamp). Particulars: CHO crelox hERG cell line, whole-cell patch clamp SynchroPatch 384, 35-37° C. The source says:
hERG Screening Assay The CHO crelox hERG cell line (ATCC reference Nr. PTA-6812, female Chinese hamster cells) was generated and validated at Roche. Ready-to-use frozen instant CHO-hERG cells were cryopreserved at Evotec (Germany) and used directly in the experiments. The extracellular solution contains (in mM): NaCl 150; KCl 4; CaCl2 1; MgCl2 1; HEPES 10; pH 7.2-7.4 with NaOH, osmolarity 290-330 mOsm. The internal solution contains (in mM): KCl, 10; KF, 100; NaCl, 10; HEPES, 10; EGTA, 20; pH=7.0-7.4 with KOH, osmolarity 260-300 mOsm. The effects of a compound on hERG K+-currents parameters will be evaluated at 2 concentrations in at least 4 cells. The hERG test is performed using automated patch clamp system SynchroPatch® 384 (Nanion Technologies GmbH, Germany). K+ currents are measured with the patch-voltage-clamp technique in the whole-cell configuration at 35-37° C. Cells were held at a resting voltage of −80 mV and they were stimulated by a voltage pattern shown in FIG. 1 to activate hERG channels and conduct outward IKhERG current, at a stimulation frequency of 0.1 Hz (6 bpm) The amplitudes of IKhERG were recorded in each concentration of drug and they were compared to the vehicle control values (taken as 100%) to define fractional blocks. The concentration-response data were fitted with the following relationship: where C is the concentration, • IC50 is the concentration producing 50% block • h is the Hill coefficient. Concentration-response curves were fitted by non-linear regression analysis using EworkBook suite (ID Business Solutions Ltd, UK). Data fit was done with the 4 Parameter Logistic Model (fit=(A+(B/(1+((x/C)^D)))), where A=0 and B=100).
A general note: The hERG channel carries a current that helps repolarise heart muscle cells.

Test [2] concerns the target T2, NLRP3 (Homo sapiens, UniProt Q96P20). The test can be described thus: THP-1 cells pyroptosis assay. Particulars: 1.0 μg/ml LPS, nigericin 5 μM, resazurin readout. Also on record: Seed THP-1 cells (25,000 cells/well) containing 1.0 μg/ml LPS; host or cells: THP-1 cells, LPS-primed, nigericin-stimulated. The procedure: The cells were routinely passaged and grown to confluency (˜10^6 cells/ml). On the day of the experiment, THP-1 cells were harvested and resuspended into RPMI medium (without FBS). […] To this diluted cell solution was added LPS (Sigma #L4524) to give a 1 μg/ml Final Assay Concentration (FAC). 40 μl of the final preparation was aliquoted into each well of a 96-well plate. The plate thus prepared was used for compound screening.
The following method step-by-step assay was followed for compound screening. • 1. […] Incubate for 3 hrs at 37° C., 5% CO2 • 4. Add 5 μl nigericin (Sigma #N7143) (FAC 5 μM) to all wells • 5. Incubate for 1 hr at 37° C., 5% CO2 • 6. At the end of the incubation period, spin plates at 300×g for 3 mins and remove supernatant • 7. Then add 50 μl of resazurin (Sigma #R7017) (FAC 100 μM resazurin in RPMI medium without FBS) and incubate plates for a further 1-2 hrs at 37° C. and 5% CO2 • 8. […] IC50 data is fitted to a non-linear regression equation (log inhibitor vs response-variable slope 4-parameters)
On the technique in general: Alamar Blue is a resazurin reagent that responds to reducing activity.

Test [3] has as its target T2, NLRP3. Nature of the test: Human whole blood IL-1β release assay. Also on record: Human whole blood in Li-heparin tubes was obtained from healthy donors; from tissue; host or cells: human whole blood from healthy donors, LPS-primed, nigericin-stimulated. The conditions noted are these: 1 μg/ml LPS, nigericin 10 μM, IL-1β by AlphaLisa. The method, then: For systemic delivery, the ability to inhibit NLRP3 when the compounds are present within the bloodstream is of great importance. For this reason, the NLRP3 inhibitory activity of a number of compounds in human whole blood was investigated in accordance with the following protocol.
Human whole blood in Li-heparin tubes was obtained from healthy donors from a volunteer donor panel. • 1. […] Incubate for 3 hrs at 37° C., 5% CO2 • 4. Add 10 μl nigericin (Sigma #N7143) (10 μM FAC) to all wells • 5. Incubate for 1 hr at 37° C., 5% CO2 • 6. At the end of the incubation period, spin plates at 300×g for 5 mins to pellet cells and remove 20 μl of supernatant and add to 96-well v-bottom plates for IL-1β analysis (note: these plates containing the supernatants can be stored at −80° C. to be analysed at a later date) • 7. IL-1β was measured according to the manufacturer protocol (Perkin Elmer-AlphaLisa IL-1 Kit AL220F-5000) • 8. IC50 data is fitted to a non-linear regression equation (log inhibitor vs response-variable slope 4-parameters)
(In Alpha technology, singlet oxygen from a donor bead excites a nearby acceptor bead.)

Broadly, the pIC50 is −log10 of the IC50, conventionally taken in molar units. Low values mean a high IC50, high ones a low IC50.

Each structure is given as a SMILES string. pIC50: −log10 of the molar value. Where only a bound is given, the exact number is not on record here.

T1 sequence (Q12809 whole entry): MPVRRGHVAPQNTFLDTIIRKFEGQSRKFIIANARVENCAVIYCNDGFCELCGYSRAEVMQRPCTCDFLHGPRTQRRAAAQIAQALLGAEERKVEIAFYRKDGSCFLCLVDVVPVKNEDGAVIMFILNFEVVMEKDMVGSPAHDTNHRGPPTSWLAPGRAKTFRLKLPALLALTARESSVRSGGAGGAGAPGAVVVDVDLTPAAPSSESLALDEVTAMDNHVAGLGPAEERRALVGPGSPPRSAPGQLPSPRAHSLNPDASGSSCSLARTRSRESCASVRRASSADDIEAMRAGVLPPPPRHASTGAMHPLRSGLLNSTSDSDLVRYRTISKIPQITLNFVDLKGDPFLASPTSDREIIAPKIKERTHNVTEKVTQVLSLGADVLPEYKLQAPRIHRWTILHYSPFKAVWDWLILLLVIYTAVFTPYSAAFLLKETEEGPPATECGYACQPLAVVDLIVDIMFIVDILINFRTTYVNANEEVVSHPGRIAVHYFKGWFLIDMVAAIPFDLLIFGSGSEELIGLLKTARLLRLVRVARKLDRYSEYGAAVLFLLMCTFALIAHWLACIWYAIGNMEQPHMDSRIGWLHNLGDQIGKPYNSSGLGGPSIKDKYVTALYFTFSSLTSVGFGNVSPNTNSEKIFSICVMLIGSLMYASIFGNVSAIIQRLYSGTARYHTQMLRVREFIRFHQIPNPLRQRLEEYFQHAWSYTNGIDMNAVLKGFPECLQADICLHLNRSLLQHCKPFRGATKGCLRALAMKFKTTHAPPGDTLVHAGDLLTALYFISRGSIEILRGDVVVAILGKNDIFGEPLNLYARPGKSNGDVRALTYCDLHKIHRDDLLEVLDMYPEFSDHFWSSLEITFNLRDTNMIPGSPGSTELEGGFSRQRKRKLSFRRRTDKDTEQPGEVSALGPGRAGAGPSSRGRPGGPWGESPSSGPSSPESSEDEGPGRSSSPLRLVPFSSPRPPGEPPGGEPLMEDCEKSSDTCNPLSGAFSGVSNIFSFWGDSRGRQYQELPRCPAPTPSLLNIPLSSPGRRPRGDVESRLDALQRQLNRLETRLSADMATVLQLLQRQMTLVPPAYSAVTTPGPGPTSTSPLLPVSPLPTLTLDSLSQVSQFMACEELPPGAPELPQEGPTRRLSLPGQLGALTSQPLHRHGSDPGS
T2 sequence (Q96P20 whole entry): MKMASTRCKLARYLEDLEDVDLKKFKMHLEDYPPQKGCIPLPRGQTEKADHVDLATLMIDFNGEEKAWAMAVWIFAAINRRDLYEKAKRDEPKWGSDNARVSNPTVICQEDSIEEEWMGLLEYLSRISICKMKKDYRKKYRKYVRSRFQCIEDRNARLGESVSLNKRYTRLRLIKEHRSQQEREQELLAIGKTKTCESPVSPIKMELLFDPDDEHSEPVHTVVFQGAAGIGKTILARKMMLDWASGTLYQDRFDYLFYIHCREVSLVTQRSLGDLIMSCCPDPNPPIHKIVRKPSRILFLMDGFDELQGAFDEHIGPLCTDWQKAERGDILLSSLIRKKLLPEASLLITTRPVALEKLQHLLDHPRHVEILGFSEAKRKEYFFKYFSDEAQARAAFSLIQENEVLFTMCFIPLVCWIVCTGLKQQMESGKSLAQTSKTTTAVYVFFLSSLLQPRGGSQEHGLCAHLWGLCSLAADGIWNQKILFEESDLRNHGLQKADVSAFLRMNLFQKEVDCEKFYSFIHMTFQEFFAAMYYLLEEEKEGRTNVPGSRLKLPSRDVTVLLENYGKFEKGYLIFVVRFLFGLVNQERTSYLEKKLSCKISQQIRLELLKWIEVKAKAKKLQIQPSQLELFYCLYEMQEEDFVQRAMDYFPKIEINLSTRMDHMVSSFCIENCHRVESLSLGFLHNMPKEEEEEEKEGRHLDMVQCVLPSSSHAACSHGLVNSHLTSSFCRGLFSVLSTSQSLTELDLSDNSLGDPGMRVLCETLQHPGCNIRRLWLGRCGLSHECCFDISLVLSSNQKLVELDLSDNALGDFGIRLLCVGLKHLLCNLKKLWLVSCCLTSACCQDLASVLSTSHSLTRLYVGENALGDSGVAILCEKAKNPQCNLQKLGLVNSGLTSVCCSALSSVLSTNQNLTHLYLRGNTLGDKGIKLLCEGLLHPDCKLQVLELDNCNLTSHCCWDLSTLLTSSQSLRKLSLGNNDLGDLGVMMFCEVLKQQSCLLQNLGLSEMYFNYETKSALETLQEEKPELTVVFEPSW

With `Cn1c(-c2ccc(C(F)(F)F)cc2O)nnc(N[C@@H]2CCCN(C3CC3)C2)c1=O` [Example 10, (R)-6-((1-Cyclopropylpiperidin-3-yl)amino)-3-(2-hydroxy-4-(trifluoromethyl)phenyl)-4-methyl-1,2,4-triazin-5(4H)-one], the figures for the pIC50 in test [1], in test [2] and in test [3] were less than 4.70, 7.41 and 6.77, respectively.
The corresponding values for `CCN1CCC[C@@H](Nc2nnc(-c3ccc(C(F)(F)F)cc3O)n(C)c2=O)C1` [Example 19, 6-[[(3R)-1-Ethyl-3-piperidyl]amino]-3-[2-hydroxy-4-(trifluoromethyl)phenyl]-4-methyl-1,2,4-triazin-5-one;2,2,2-trifluoroacetic Acid] are less than 4.70, 8.00 and 8.02.
Taken in the same sequence, the figures for `CCN1CCC[C@@H](Nc2nnc(-c3ccc(F)cc3O)n(C)c2=O)C1` [Example 21, 6-[[(3R)-1-Ethyl-3-piperidyl]amino]-3-(4-fluoro-2-hydroxy-phenyl)-4-methyl-1,2,4-triazin-5-one] were less than 4.70, 7.24 and 7.55.
The corresponding values for `CCN1CCC[C@@H](Nc2nnc(-c3ccc(OC(F)(F)F)cc3O)n(C)c2=O)C1` [Example 27, 6-[[(3R)-1-Ethyl-3-piperidyl]amino]-3-[2-hydroxy-4-(trifluoromethoxy)phenyl]-4-methyl-1,2,4-triazin-5-one] are less than 4.70, 7.92 and 7.85.
On to `CCN1CCC[C@@H](Nc2nnc(-c3c(C)cc(C(F)(F)F)cc3O)n(C)c2=O)C1` [Example 28, 6-[[(3R)-1-Ethyl-3-piperidyl]amino]-3-[2-hydroxy-6-methyl-4-(trifluoromethyl)phenyl]-4-methyl-1,2,4-triazin-5-one], for which the figures for the pIC50 in test [1], in test [2] and in test [3] were less than 4.70, 7.89 and 7.51, respectively.

For the origin of these results see patent US20240208928A1, “NOVEL COMPOUNDS” (Hoffmann-La Roche Inc., priority 2021, published 2024).
